Measured values taken from PubChem BioAssay AID330 (DTP/NCI, 2004).
Where “and” joins values, the source holds several entries; their conditions need not be identical. Equal values may be shown once. Inconclusive results and toxic doses are left out. Peptide text beside a SMILES is read from it. * marks the point of attachment. Cbz = O=C(OCc1ccccc1)*

Tested on: P388 leukemia ip, CD2F1 mice, survival T/C
Experiment: NCI In Vivo Anticancer Drug Screen. Data for tumor model P388 Leukemia (intraperitoneal) in CD2F1 (CDF1) mice
Details: endpoint: median survival time, higher = longer survival
Summary of the method: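 Mice carrying the transplanted tumor received test compound or vehicle. Survival was recorded in each group, and the value is the treated-group measurement divided by that of the vehicle-treated control group.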

[1] = dose: 25.0 mg/kg/injection, schedule: Q01DX009 (ip), vehicle: Klucel (hydroxypropylcellulose) (HPC)
[2] = dose: 50.0 mg/kg/injection, schedule: Q01DX009 (ip), vehicle: Klucel (hydroxypropylcellulose) (HPC)
[3] = dose: 100.0 mg/kg/injection, schedule: Q01DX009 (ip), vehicle: Klucel (hydroxypropylcellulose) (HPC)
[4] = dose: 200.0 mg/kg/injection, schedule: Q01DX009 (ip), vehicle: Klucel (hydroxypropylcellulose) (HPC)
[5] = dose: 50.0 mg/kg/injection, schedule: Q01DX005 (ip), vehicle: Klucel (hydroxypropylcellulose) (HPC)
[6] = dose: 100.0 mg/kg/injection, schedule: Q01DX005 (ip), vehicle: Klucel (hydroxypropylcellulose) (HPC)
[7] = dose: 200.0 mg/kg/injection, schedule: Q01DX005 (ip), vehicle: Klucel (hydroxypropylcellulose) (HPC)
[8] = dose: 12.5 mg/kg/injection, schedule: Q01DX009 (ip), vehicle: saline with Tween-80
[9] = dose: 60.0 mg/kg/injection, schedule: Q01DX005 (ip), vehicle: saline
[10] = dose: 240.0 mg/kg/injection, schedule: Q01DX005 (ip), vehicle: saline
[11] = dose: 25.0 mg/kg/injection, schedule: Q01DX009 (ip), vehicle: saline with Tween-80
[12] = dose: 50.0 mg/kg/injection, schedule: Q01DX009 (ip), vehicle: saline with Tween-80
[13] = dose: 100.0 mg/kg/injection, schedule: Q01DX009 (ip), vehicle: saline with Tween-80
[14] = dose: 50.0 mg/kg/injection, schedule: Q01DX005 (ip), vehicle: saline with Tween-80
[15] = dose: 100.0 mg/kg/injection, schedule: Q01DX005 (ip), vehicle: saline with Tween-80
[16] = dose: 200.0 mg/kg/injection, schedule: Q01DX005 (ip), vehicle: saline with Tween-80
[17] = dose: 50.0 mg/kg/injection, schedule: Q01DX005 (ip), vehicle: saline
[18] = dose: 100.0 mg/kg/injection, schedule: Q01DX005 (ip), vehicle: saline
[19] = dose: 200.0 mg/kg/injection, schedule: Q01DX005 (ip), vehicle: saline
[20] = dose: 120.0 mg/kg/injection, schedule: Q01DX005 (ip), vehicle: saline

CN=NNc1ccc([N+](=O)[O-])cc1
T/C (dose: 12.5 mg/kg/injection, schedule: Q01DX009 (ip), vehicle: Klucel (hydroxypropylcellulose) (HPC)): 98 % of control and 94 % of control
T/C [1]: 103 % of control and 109 % of control
T/C [2]: 108 % of control and 111 % of control
T/C [3]: 112 % of control
T/C [4]: 167 % of control

NC(=O)c1nn(C2OC(CO)C(O)C2O)c2ncnc(N)c12 (stereo unspecified)
T/C (dose: 3.0 mg/kg/injection, schedule: Q01DX009 (ip), vehicle: Klucel (hydroxypropylcellulose) (HPC)): 152 % of control
T/C (dose: 6.0 mg/kg/injection, schedule: Q01DX009 (ip), vehicle: Klucel (hydroxypropylcellulose) (HPC)): 190 % of control

O=c1nnc(O)c2ccn(O)cc1-2
T/C (dose: 60.0 mg/kg/injection, schedule: Q01DX005 (ip), vehicle: saline with Tween-80): 99 % of control
T/C (dose: 120.0 mg/kg/injection, schedule: Q01DX005 (ip), vehicle: saline with Tween-80): 103 % of control
T/C (dose: 240.0 mg/kg/injection, schedule: Q01DX005 (ip), vehicle: saline with Tween-80): 99 % of control

CC(=O)Oc1ccc(OC(C)=O)c2c1CC=CC2
T/C [5]: 105 % of control
T/C [6]: 105 % of control
T/C [7]: 100 % of control

O=C(O)c1cc[c]([Hg][S]c2ncnc3nc[nH]c23)cc1
T/C (dose: 1.56 mg/kg/injection, schedule: Q01DX009 (ip), vehicle: saline with Tween-80): 106 % of control
T/C (dose: 3.13 mg/kg/injection, schedule: Q01DX009 (ip), vehicle: saline with Tween-80): 110 % of control and 123 % of control
T/C (dose: 6.25 mg/kg/injection, schedule: Q01DX009 (ip), vehicle: saline with Tween-80): 100 % of control
T/C [8]: 100 % of control
T/C [1]: 121 % of control

COc1ccc2c(NCCCCCCNc3c4ccccc4nc4cc(OC)ccc34)c3ccccc3nc2c1
T/C (dose: 0.62 mg/kg/injection, schedule: Q## X009 (ip), vehicle: lactic acid): 151 % of control
T/C (dose: 0.63 mg/kg/injection, schedule: Q01DX009 (ip), vehicle: other): 119 % of control
T/C (dose: 1.25 mg/kg/injection, schedule: Q## X009 (ip), vehicle: lactic acid): 170 % of control
T/C (dose: 2.5 mg/kg/injection, schedule: Q## X009 (ip), vehicle: lactic acid): 170 % of control
T/C (dose: 5.0 mg/kg/injection, schedule: Q01DX009 (ip), vehicle: other): 154 % of control
T/C (dose: 5.0 mg/kg/injection, schedule: Q## X009 (ip), vehicle: lactic acid): 164 % of control
T/C (dose: 10.0 mg/kg/injection, schedule: Q01DX009 (ip), vehicle: other): 110 % of control
T/C (dose: 10.0 mg/kg/injection, schedule: Q## X009 (ip), vehicle: lactic acid): 86 % of control

[O-][n+]1c2ccccc2cc2c1c1ccccc1n2O
T/C (dose: 12.5 mg/kg/injection, schedule: Q01DX005 (ip), vehicle: Klucel (hydroxypropylcellulose) (HPC)): 113 % of control
T/C (dose: 25.0 mg/kg/injection, schedule: Q01DX005 (ip), vehicle: Klucel (hydroxypropylcellulose) (HPC)): 107 % of control
T/C [5]: 106 % of control and 93 % of control

N[C@H]1c2ccsc2C(=O)[C@H]1O
T/C [9]: 153 % of control
T/C [10]: 155 % of control

CCOC(=O)c1c(NCCO)c(-c2ccccc2)c(=O)n2c1[nH]c1ccccc12
T/C (dose: 100.0 mg/kg/injection, schedule: Q01DX001 (ip), vehicle: saline with Tween-80): 100 % of control
T/C (dose: 200.0 mg/kg/injection, schedule: Q01DX001 (ip), vehicle: saline with Tween-80): 99 % of control
T/C (dose: 400.0 mg/kg/injection, schedule: Q01DX001 (ip), vehicle: saline with Tween-80): 87 % of control

CCOP(=O)(O)C1CCCC(C)[N-]1.CCOP(=O)(O)C1CCCC(C)[N-]1.[Ni+2] (stereo unspecified)
T/C (dose: 12.5 mg/kg/injection, schedule: Q04DX003 (ip), vehicle: Klucel (hydroxypropylcellulose) (HPC)): 99 % of control
T/C (dose: 25.0 mg/kg/injection, schedule: Q04DX003 (ip), vehicle: Klucel (hydroxypropylcellulose) (HPC)): 107 % of control
T/C (dose: 50.0 mg/kg/injection, schedule: Q04DX003 (ip), vehicle: Klucel (hydroxypropylcellulose) (HPC)): 107 % of control

CC(C)(C)c1ccc(C(c2ccc(C(C)(C)C)cc2)C(Cl)(Cl)Cl)cc1
T/C (dose: 100.0 mg/kg/injection, schedule: Q04DX003 (ip), vehicle: saline with Tween-80): 104 % of control
T/C (dose: 200.0 mg/kg/injection, schedule: Q04DX003 (ip), vehicle: saline with Tween-80): 100 % of control
T/C (dose: 400.0 mg/kg/injection, schedule: Q04DX003 (ip), vehicle: saline with Tween-80): 100 % of control

CCOC(=O)c1ccc2[nH]c(-c3ccc(S(=O)(=O)F)cc3)cc(=O)c2c1
T/C [8]: 87 % of control
T/C [11]: 93 % of control
T/C [12]: 96 % of control
T/C [13]: 93 % of control

CCN(CC)C(=NC(C)C)c1ccccc1
T/C (dose: 12.5 mg/kg/injection, schedule: Q01DX009 (ip), vehicle: saline): 98 % of control
T/C (dose: 25.0 mg/kg/injection, schedule: Q01DX009 (ip), vehicle: saline): 94 % of control

O=C1CN(c2ccccc2)C(=O)CN1/N=C/c1ccc(O)c(O)c1
T/C [14]: 93 % of control
T/C [15]: 100 % of control
T/C [16]: 101 % of control

NC(=O)n1ncnc1N
T/C [17]: 95 % of control
T/C [12]: 107 % of control
T/C [18]: 100 % of control
T/C [13]: 102 % of control
T/C [19]: 102 % of control
T/C (dose: 200.0 mg/kg/injection, schedule: Q01DX009 (ip), vehicle: saline with Tween-80): 100 % of control
T/C (dose: 400.0 mg/kg/injection, schedule: Q01DX009 (ip), vehicle: saline with Tween-80): 117 % of control

C=C(C(=O)OC)C1C=CC2OC(C)(C)OCC2O1 (stereo unspecified)
T/C [9]: 113 % of control
T/C [20]: 106 % of control
T/C [10]: 109 % of control

COc1ccc(/C=C2/C(=O)N(c3ccccc3)N=C2C)cc1
T/C (dose: 60.0 mg/kg/injection, schedule: Q01DX005 (ip), vehicle: Klucel (hydroxypropylcellulose) (HPC)): 107 % of control
T/C (dose: 120.0 mg/kg/injection, schedule: Q01DX005 (ip), vehicle: Klucel (hydroxypropylcellulose) (HPC)): 104 % of control
T/C (dose: 240.0 mg/kg/injection, schedule: Q01DX005 (ip), vehicle: Klucel (hydroxypropylcellulose) (HPC)): 107 % of control

CCCCCC1c2cc(O)ccc2OC1N1CCOCC1 (stereo unspecified)
T/C [8]: 105 % of control
T/C [11]: 101 % of control
T/C [12]: 113 % of control and 120 % of control
T/C [13]: 119 % of control and 124 % of control

CC(C)(C)CC(C)(C)NCC(O)COc1ccc(C(C)(C)c2ccc(OCC(O)CNC(C)(C)CC(C)(C)C)cc2)cc1 (stereo unspecified)
T/C (dose: 3.13 mg/kg/injection, schedule: Q01DX009 (ip), vehicle: other): 104 % of control
T/C (dose: 3.13 mg/kg/injection, schedule: Q04DX003 (ip), vehicle: other): 108 % of control
T/C (dose: 6.25 mg/kg/injection, schedule: Q01DX009 (ip), vehicle: other): 90 % of control
T/C (dose: 6.25 mg/kg/injection, schedule: Q04DX003 (ip), vehicle: other): 100 % of control

Nc1ncc2c(n1)Oc1cc3nc4c(=O)nc(N)nc-4oc3cc1N2
T/C [5]: 91 % of control
T/C [6]: 93 % of control

COC(=O)C1CCCN1C(=O)C(CCCCNC(=O)OCc1ccccc1)NC(=O)OCc1ccccc1 (stereo unspecified) (Cbz-Lys(Cbz)-Pro-OMe; configuration not given here)
T/C [17]: 106 % of control
T/C [18]: 103 % of control
T/C [19]: 105 % of control

CCOc1nc2ccccc2nc1OCC
T/C [5]: 95 % of control
T/C [6]: 104 % of control

Clc1ccc(-c2nc3ccccc3nc2-c2ccc(Cl)cc2)cc1
T/C [2]: 101 % of control
T/C [3]: 111 % of control
T/C [4]: 106 % of control

CCC(c1ccc(O)cc1)c1cc2c(cc1OCC(=O)O)OCO2 (stereo unspecified)
T/C [14]: 102 % of control
T/C [15]: 93 % of control
T/C [16]: 99 % of control

CCCC(Nc1nncs1)Nc1nncs1
T/C [14]: 101 % of control
T/C [15]: 112 % of control and 94 % of control
T/C [16]: 108 % of control
T/C (dose: 400.0 mg/kg/injection, schedule: Q01DX005 (ip), vehicle: saline with Tween-80): 157 % of control

CC1CCCC2=C1C(O)c1c(N)cccc1C2O (stereo unspecified)
T/C [5]: 96 % of control
T/C [6]: 101 % of control
T/C [7]: 94 % of control

CC1CCCN2C(=O)CN(Cc3ccccc3)CC(=O)N12 (stereo unspecified)
T/C [14]: 100 % of control
T/C [15]: 100 % of control
T/C [16]: 100 % of control

O=C(N1CCOCC1)C12OC3CC(CC(C3)O1)O2
T/C [9]: 102 % of control
T/C [20]: 104 % of control
T/C [10]: 105 % of control
